For 28 molecules, IC50 and EC50 results are on record in ChEMBL document CHEMBL1201862, “PubChem BioAssay data set” (2004).

The structures appear in SMILES notation. Active and inactive are the calls of the source.

For one experiment, the target named is T1, Leucine aminopeptidase (Plasmodium falciparum 3D7, UniProt Q8IL11).
T1 sequence (Q8IL11 whole entry): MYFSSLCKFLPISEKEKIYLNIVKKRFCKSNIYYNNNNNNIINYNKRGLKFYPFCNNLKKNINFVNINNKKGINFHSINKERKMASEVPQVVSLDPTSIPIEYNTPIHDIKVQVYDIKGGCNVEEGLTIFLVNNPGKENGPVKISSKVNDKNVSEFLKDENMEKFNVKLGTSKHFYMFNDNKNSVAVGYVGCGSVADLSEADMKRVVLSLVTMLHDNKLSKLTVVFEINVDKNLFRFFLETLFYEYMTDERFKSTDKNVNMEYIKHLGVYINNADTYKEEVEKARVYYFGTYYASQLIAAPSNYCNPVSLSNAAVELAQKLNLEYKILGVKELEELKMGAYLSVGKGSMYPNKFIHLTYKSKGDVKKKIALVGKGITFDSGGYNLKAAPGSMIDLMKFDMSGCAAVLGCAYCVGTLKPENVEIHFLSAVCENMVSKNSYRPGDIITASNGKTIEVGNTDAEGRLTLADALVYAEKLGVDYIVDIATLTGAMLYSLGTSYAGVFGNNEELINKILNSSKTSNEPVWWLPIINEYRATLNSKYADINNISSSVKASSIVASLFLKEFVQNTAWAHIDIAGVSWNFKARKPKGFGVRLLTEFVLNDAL
In words: P. falciparum M17LAP inhibitors, primary screen, biochemical, fluorogenic H-Leu-NHMec substrate, 1536-well (AID 1619). Type of experiment: functional.

Experiment [1] concerns the target T2, Fatty acid synthase (Homo sapiens, UniProt P49327). The experiment in a line: inhibition of human FAS-TE enzyme activity – biochemical, kinetic fluorescence intensity, dose response (AID 624326).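 Further: rate of fluorescence rise from hydrolysis of a fluorogenic O-methyl fluorescein ester substrate.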 Type of experiment: functional.
Experiment [2] concerns the target T2, Fatty acid synthase. The experiment in a line: inhibition of human FAS-TE enzyme activity – biochemical, endpoint fluorescence intensity, uHTS hits, dose response (AID 624327).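 Further: fluorescence from hydrolysis of an O-methyl fluorescein acyl ester substrate by the enzyme.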 Type of experiment: functional.
For experiment [3], the target named is Ras and Rab interactor 1/Tyrosine-protein kinase ABL1 (Homo sapiens, UniProt P00519+Q13671). Type of experiment: functional.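 Further: biochemical TR-FRET dose-response test measuring inhibition of binding between Rin1 and Abl proteins.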
Chain of Ras and Rab interactor 1/Tyrosine-protein kinase ABL1 (P00519 whole entry): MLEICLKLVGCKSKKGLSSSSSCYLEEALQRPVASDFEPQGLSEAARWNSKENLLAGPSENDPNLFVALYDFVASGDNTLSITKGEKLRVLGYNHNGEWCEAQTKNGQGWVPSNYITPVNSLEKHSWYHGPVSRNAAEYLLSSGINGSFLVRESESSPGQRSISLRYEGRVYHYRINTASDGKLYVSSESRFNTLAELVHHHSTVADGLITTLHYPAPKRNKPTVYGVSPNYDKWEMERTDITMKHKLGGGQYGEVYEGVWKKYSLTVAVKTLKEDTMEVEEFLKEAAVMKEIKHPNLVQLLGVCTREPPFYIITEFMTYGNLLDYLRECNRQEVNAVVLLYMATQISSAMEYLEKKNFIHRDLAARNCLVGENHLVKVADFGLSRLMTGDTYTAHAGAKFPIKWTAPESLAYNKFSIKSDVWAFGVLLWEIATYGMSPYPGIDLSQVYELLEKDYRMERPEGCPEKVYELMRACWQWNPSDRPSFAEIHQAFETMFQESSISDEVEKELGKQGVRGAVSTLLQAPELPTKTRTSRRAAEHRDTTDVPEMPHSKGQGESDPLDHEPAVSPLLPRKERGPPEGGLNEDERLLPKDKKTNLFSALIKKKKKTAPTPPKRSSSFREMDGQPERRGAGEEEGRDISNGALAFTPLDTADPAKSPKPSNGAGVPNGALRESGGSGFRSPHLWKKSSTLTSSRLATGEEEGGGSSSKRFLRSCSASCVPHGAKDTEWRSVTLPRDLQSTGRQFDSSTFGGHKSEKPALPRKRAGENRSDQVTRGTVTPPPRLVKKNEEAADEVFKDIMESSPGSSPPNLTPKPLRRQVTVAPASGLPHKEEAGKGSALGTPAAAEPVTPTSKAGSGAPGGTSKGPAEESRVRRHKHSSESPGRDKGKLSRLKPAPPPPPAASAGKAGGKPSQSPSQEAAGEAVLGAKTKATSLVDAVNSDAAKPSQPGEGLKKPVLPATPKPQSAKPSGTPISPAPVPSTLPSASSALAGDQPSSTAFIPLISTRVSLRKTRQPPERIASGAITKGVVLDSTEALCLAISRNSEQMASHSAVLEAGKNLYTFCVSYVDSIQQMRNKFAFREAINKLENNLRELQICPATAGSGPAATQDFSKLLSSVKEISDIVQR
Chain of Ras and Rab interactor 1/Tyrosine-protein kinase ABL1 (Q13671 whole entry): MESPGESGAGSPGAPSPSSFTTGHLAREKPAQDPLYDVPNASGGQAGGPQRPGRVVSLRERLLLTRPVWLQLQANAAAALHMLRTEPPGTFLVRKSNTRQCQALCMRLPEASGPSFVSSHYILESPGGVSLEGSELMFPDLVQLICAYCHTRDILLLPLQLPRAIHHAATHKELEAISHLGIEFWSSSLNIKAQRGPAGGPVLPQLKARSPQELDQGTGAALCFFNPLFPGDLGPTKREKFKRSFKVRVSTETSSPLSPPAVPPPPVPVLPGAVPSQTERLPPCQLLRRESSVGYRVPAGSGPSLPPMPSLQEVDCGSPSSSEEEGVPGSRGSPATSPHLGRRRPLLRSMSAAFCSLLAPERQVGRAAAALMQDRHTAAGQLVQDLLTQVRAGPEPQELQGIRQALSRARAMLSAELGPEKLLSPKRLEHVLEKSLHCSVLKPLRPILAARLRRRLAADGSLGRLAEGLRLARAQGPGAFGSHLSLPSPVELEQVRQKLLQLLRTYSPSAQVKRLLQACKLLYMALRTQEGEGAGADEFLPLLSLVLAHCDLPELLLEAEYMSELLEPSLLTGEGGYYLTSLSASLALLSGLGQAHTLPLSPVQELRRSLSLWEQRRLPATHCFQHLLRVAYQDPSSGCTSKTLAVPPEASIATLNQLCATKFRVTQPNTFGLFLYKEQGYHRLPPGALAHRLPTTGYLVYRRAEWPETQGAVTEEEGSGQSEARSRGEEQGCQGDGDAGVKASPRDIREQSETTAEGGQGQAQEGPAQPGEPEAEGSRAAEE
Experiment [4] has as its target T3, Methionyl-tRNA synthetase, putative (Trypanosoma brucei brucei, UniProt Q38C91).
T3 sequence (Q38C91 whole entry): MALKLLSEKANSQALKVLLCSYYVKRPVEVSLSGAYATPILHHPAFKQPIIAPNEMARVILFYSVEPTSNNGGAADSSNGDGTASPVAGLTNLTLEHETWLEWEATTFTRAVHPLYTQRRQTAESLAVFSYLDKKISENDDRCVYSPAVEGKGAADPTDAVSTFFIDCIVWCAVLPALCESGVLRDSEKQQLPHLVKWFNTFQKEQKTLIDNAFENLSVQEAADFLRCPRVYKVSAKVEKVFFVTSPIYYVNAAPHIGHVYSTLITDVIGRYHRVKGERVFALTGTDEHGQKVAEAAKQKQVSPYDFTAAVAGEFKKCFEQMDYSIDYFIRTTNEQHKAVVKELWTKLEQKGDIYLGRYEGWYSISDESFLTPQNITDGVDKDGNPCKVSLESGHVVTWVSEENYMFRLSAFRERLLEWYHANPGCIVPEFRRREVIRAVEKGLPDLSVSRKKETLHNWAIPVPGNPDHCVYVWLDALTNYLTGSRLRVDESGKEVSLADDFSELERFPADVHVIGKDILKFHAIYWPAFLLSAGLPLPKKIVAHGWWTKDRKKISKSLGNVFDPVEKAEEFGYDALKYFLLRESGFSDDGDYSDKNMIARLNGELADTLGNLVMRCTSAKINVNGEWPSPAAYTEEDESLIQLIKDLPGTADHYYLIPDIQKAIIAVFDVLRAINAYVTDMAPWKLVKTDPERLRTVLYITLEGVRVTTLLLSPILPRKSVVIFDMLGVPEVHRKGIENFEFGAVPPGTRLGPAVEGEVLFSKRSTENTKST
It is filed as functional, Trypanosoma brucei brucei strain 927/4 GUTat10.1.

For experiment [5], the target named is T3, Methionyl-tRNA synthetase, putative. Type of experiment: functional, Trypanosoma brucei brucei strain 927/4 GUTat10.1. The source holds these as a separate data set.
Experiment [6] in a line: Counterscreen for inhibitors of Trypanosoma brucei methionyl tRNA synthetase (MetRS): Luminescence-based cell-based high throughput dose response assay to identify compounds that are cytotoxic to Jurkat human T lymphocyte cells. It is filed as functional. (The purpose of a counterscreen is to sort out artefacts and off-target activity.)
A further experiment relates to H9c2. In words: cells. The following applies: Rattus norvegicus, H9c2, Myocardium. Type of experiment: functional, cell-based.
Experiment [7] is described as follows: HEK-293T viability loss after treatment – luminescence, T-cell screen hits, cytotoxicity control for TCR NF-kB inhibitor project, dose response (AID 489026).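 Further: cells exposed to compound about 14 hours before the viability readout.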 Type of experiment: functional, cell-based.
A further experiment has as its target T4, Aminopeptidase N (Plasmodium falciparum FcB1/Columbia, UniProt O96935).
T4 sequence (O96935 whole entry): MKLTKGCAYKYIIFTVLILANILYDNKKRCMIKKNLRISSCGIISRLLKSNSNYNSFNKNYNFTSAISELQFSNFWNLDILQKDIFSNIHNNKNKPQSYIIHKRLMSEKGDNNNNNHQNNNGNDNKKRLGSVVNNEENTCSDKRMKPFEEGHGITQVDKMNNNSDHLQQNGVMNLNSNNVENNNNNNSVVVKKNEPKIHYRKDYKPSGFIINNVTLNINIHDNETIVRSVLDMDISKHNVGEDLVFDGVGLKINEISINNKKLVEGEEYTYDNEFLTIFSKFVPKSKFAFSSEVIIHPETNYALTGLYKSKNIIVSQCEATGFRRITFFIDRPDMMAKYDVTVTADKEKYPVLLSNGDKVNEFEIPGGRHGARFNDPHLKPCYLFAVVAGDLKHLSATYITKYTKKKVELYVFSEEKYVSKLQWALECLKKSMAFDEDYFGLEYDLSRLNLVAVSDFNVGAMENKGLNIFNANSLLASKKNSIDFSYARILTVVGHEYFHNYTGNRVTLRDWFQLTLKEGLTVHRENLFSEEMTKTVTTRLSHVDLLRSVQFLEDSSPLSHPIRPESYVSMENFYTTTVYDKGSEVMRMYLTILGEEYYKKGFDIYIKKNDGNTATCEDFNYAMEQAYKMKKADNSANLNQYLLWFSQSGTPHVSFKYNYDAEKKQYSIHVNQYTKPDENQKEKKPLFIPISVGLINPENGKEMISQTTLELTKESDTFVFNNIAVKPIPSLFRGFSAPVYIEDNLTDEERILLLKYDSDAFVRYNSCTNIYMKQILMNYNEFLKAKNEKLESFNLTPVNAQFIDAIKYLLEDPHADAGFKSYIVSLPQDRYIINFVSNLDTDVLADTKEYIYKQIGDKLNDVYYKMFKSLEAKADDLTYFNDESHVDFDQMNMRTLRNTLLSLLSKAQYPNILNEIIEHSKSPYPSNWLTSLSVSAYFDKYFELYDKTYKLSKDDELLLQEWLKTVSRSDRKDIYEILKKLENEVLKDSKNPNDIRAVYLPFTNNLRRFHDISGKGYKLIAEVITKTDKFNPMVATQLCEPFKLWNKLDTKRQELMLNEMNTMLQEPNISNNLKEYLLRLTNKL
In words: malaria alanyl aminopeptidase activity blockers – biochemical, fluorogenic H-Leu-NHMec substrate, 1536-well (AID 1445). Further details: species or system Plasmodium falciparum 3D7, 3D7.

Experiment [8] addresses Luciferin 4-monooxygenase (Photinus pyralis, UniProt P08659). The experiment in a line: inhibition of purified Photinus pyralis luciferase – biochemical, luminescence, dose response (AID 1891).
Experiment [9] can be described thus: Luminescence Cell-Based Dose Confirmation HTS to Identify Inhibitors of Platelet Dense Granule Release. [Related pubchem assays: 1663 (Primary HTS), 1678 (Summary of Project)]. It is filed as functional.
For experiment [10], the target named is T5, Voltage-gated N-type calcium channel alpha-1B subunit/Amyloid beta A4 precursor protein-binding family A member 1 (Homo sapiens, UniProt Q00975+Q02410). Type of experiment: protein assay.
T5 sequence (Q00975 whole entry): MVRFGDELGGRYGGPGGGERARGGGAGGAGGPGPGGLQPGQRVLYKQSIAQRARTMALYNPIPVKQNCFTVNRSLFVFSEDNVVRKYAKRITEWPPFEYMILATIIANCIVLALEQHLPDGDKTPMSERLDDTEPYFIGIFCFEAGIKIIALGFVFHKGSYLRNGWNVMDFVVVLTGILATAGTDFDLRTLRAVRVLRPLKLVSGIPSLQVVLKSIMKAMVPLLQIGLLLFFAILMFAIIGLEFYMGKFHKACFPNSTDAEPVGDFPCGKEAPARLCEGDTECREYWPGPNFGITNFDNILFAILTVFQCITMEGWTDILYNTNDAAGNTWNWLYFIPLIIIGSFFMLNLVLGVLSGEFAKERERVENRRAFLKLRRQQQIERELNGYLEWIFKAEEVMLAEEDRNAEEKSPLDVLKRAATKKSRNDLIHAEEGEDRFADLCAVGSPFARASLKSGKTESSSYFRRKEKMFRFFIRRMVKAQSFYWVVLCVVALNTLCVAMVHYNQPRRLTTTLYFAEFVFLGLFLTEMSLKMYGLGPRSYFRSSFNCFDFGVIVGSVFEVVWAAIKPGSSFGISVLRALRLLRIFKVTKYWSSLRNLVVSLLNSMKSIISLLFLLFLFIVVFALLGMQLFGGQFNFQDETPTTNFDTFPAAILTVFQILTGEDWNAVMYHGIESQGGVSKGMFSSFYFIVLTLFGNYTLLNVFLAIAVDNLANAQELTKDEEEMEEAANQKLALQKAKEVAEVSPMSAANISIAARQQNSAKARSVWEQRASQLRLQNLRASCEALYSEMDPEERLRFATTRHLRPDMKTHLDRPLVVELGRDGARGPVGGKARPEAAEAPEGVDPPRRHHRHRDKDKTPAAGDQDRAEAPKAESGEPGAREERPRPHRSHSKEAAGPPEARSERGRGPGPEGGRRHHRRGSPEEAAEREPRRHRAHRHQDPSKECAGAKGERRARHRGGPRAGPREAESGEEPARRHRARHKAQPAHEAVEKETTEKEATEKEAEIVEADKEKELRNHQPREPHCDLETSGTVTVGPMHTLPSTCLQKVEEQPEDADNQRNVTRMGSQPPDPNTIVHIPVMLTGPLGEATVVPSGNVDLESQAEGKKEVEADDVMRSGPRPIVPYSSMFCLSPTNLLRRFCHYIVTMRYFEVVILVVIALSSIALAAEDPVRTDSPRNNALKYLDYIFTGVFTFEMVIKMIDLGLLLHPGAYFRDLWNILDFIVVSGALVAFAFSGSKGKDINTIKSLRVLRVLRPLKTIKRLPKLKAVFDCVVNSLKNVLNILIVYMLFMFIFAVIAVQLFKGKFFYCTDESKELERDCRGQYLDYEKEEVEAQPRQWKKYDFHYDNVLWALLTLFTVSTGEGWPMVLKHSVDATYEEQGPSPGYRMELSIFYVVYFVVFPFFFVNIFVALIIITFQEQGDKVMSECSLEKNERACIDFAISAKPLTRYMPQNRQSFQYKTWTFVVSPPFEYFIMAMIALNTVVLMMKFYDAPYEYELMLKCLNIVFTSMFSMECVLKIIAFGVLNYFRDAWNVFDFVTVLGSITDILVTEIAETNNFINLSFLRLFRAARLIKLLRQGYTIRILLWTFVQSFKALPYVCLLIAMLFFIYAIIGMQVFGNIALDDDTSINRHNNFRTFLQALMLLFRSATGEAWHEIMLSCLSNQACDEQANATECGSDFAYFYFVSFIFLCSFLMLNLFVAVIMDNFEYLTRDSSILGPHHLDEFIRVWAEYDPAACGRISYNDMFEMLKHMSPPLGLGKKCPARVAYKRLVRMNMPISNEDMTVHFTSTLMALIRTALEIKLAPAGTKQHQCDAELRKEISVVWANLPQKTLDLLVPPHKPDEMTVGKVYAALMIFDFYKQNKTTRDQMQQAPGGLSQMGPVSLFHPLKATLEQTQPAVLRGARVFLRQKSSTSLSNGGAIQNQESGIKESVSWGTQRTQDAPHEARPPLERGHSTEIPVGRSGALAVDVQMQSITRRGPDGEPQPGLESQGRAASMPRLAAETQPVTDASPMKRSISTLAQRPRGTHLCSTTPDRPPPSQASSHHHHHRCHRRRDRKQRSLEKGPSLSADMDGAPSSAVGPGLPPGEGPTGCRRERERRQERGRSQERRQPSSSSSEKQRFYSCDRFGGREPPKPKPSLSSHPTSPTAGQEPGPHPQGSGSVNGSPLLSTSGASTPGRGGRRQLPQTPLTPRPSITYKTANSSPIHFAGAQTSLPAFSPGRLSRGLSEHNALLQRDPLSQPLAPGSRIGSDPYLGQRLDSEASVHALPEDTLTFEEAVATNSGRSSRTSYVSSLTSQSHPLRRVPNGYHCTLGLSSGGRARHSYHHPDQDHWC
T5 sequence (Q02410 whole entry): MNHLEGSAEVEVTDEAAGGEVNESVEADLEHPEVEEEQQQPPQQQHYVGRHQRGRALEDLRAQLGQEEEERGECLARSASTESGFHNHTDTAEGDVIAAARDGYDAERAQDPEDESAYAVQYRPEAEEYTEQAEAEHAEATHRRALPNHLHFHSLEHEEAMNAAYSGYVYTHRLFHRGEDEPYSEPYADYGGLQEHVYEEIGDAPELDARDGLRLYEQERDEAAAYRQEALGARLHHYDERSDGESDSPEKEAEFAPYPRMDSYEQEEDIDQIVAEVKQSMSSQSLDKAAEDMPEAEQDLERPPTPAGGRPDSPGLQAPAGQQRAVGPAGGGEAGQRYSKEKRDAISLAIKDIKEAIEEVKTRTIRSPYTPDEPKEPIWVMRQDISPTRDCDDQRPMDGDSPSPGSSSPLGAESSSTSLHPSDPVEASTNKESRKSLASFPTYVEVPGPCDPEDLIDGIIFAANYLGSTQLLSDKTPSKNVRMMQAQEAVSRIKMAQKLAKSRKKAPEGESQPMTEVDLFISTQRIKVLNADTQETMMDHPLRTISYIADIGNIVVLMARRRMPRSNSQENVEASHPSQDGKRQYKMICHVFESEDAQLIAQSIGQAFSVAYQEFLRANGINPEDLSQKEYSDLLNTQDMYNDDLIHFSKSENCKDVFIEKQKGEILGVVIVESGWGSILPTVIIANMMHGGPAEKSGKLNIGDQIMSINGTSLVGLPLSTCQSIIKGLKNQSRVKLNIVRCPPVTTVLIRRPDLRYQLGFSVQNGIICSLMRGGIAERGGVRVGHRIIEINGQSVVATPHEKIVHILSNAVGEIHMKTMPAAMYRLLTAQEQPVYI
Experiment [11] addresses T5, Voltage-gated N-type calcium channel alpha-1B subunit/Amyloid beta A4 precursor protein-binding family A member 1. Type of experiment: protein assay. This is another data set of the same source.
Experiment [12] can be described thus: HEK-293T cell viability reduction – luminescence, B-cell screen hits, cytotoxicity control for BCR NF-kB inhibitor project, dose response (AID 489021).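 Further: HEK-293T cells carrying an NF-kB luciferase reporter; cells exposed to compound for about 14 hours before viability readout.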 It is filed as functional, cell-based.
In another experiment the target is Large T antigen (Simian virus 40, UniProt P03070). Type of experiment: functional, Betapolyomavirus macacae.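 Further: Confirmatory-stage PubChem screen for compounds that inhibit SV40 T antigen.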

Usually IC50 stands for the concentration needed to halve the response being measured. `O=C(O)C1CCCCC1C(=O)Nc1cc(C(F)(F)F)ccc1Cl` (stereo unspecified): the IC50 at Leucine aminopeptidase was 17.5 µM (active).

`Cc1c(OCc2nn[nH]n2)ccc2c(-c3ccccc3)cc(=O)oc12`: the IC50 on Leucine aminopeptidase was 95.1 µM (active); at Fatty acid synthase [1], 1.61 µM (active); on Fatty acid synthase [2], 1.59 µM (active).

For `N#CC12CCCCC1CC1CCCCC1(C#N)N2Cc1cccnc1` (stereo unspecified), the half-inhibitory concentration (IC50) in experiment [3] was 1.68 µM (active).

For `OC(c1cc(Cl)cc(Cl)c1)c1nc(-c2ccccc2C(F)(F)F)c[nH]1` (stereo unspecified), the IC50 in experiment [4] is 4.05 µM (active); in experiment [5] it was 2.88 µM (active); in experiment [6], 59.4 µM (inactive).

`CC(=O)Nc1cccc(NC(=O)c2cc(-c3cccnc3)nc3ccc(Br)cc23)c1`: the IC50 in the experiment on H9c2 is 37.9 µM (inactive).

Consider `COc1ccc(OC)c(C2CC(=O)c3c([nH]c(C(=O)OCC4CCCO4)c3C)C2)c1` (stereo unspecified), for which the IC50 in the experiment on H9c2 is 21.1 µM (active).

For `O=C(O)CCC(=O)Nc1sc2c(c1C(=O)Nc1cccc3ccccc13)CCCCC2`, on Leucine aminopeptidase, the IC50 was 51 µM (active).

Take `CN(C)C(=O)CSc1nc(O)c2ccccc2n1`: the IC50 in the experiment with H9c2 was > 79 µM (inactive).

Take `COc1cc(NS(=O)(=O)c2ccc(OC)c(C)c2C)c(OC)cc1Cl`: in experiment [7], the IC50 was > 80 µM (inactive).

For `CCOc1cc(C2C3=C(CCCC3=O)OC3=C2C(=O)CCC3)cc([N+](=O)[O-])c1O`, the IC50 on Aminopeptidase N was 46.3 µM (active).

A word on the EC50: it is the concentration giving half of the maximal effect. `O=C(O)c1ccc(N=Nc2c(O)[nH]c3ccccc23)cc1`: the EC50 in [8] was 0.365 µM (active); in experiment [9] it was 0.937 µM (active). Further, the half-inhibitory concentration (IC50) on Leucine aminopeptidase was 84.3 µM (active).

As for `CCN(CC)C(=O)C(=O)c1cn(CC(=O)NCc2ccc3c(c2)OCO3)c2ccccc12`, the IC50 in experiment [4] was 14.4 µM (inactive); in [5], 4.83 µM (active); in experiment [6] it was 83.3 µM (inactive).

Regarding `O=C(/C=C/c1ccc([N+](=O)[O-])cc1)N(c1ccccn1)C1CCCCC1`, the figures for the IC50 in [10] and in experiment [11] were 29.1 µM (active) and 10.5 µM (active), respectively.

Regarding `COc1cccc(NC(=O)NC2(C(F)(F)F)Oc3ccccc3O2)c1`, the IC50 in the experiment on H9c2 is > 79 µM (inactive).

Turning to `NS(=O)(=O)c1ccc(CCNC(=O)c2cc(-c3cc(Cl)ccc3O)n[nH]2)cc1`, the results for the IC50 in experiment [4] and in experiment [5] were 119 µM (inactive) and 14.4 µM (inactive), respectively.

With `OCCNc1ncnc2c1ncn2[C@H]1CN(Cc2ccc(-c3ccccc3)cc2)C[C@@H](CO)O1`, the IC50 in experiment [3] is 12.6 µM (inactive).

`CCc1nc2ccc(C(=O)Nc3cccc(OCC(=O)N(C)C)c3)cn2c1N(C)Cc1cc2ccccc2s1`: the IC50 with H9c2 is > 79 µM (inactive).

`O=C(O)CCCC(=O)N1N=C(c2c(O)nc3ccc(Cl)cc3c2-c2ccccc2)CC1c1cccs1` (stereo unspecified): the IC50 at Aminopeptidase N was 20.3 µM (active).

Turning to `CCN(CC)C(=O)CSc1nc(Cc2ccccc2)nc2ccccc12`, in [3], the IC50 is > 73.4 µM (inactive).

With `CC(=O)Nc1ccc2c(c1)nc(O)c1ccccc12`, in the experiment with H9c2, the IC50 was 34 µM (inactive).

Take `COc1cc(-c2cc(C(=O)NCc3ccco3)c3ccccc3n2)cc(OC)c1OC`: the 50% inhibitory concentration (IC50) in the experiment on H9c2 is 13.2 µM (active).

As for `CCCN1C(=O)/C(=C/c2c(N3CCNC(=O)C3CC(=O)OCC)nc3c(C)cccn3c2=O)SC1=S` (stereo unspecified), the IC50 at Aminopeptidase N was 34.1 µM (active); in [12], 50 µM (inactive).

Turning to `Cn1sc(=O)c2cc(S(=O)(=O)NC3CC3)ccc21`, the IC50 is 57.3 µM (active) at Large T antigen, 9.45 µM (active) in experiment [10] and 15.6 µM (active) in experiment [11].

Regarding `Cc1ccccc1NC(=O)CN1C(=O)NC2(CCCCC2)C1=O`, the IC50 on Leucine aminopeptidase is 71.9 µM (active).

Turning to `O=C(CC1SCCNC1=O)Nc1cccc(Cl)c1` (stereo unspecified), the IC50 in experiment [3] is 20.8 µM (inactive).

As to `Cc1ncc(CO)c(/C=N/NC(=O)c2ccc(Br)cc2)c1O`, the IC50 on Aminopeptidase N was 14.4 µM (active).

Consider `NS(=O)(=O)c1ccc(CCNC(=O)c2cc(-c3cc(Cl)ccc3O)[nH]n2)cc1`, for which the IC50 in [6] is 43.3 µM (inactive).

As to `CC(C)(C)C1CCc2c(C(=O)NNC(=O)CCC(=O)O)csc2C1` (stereo unspecified), the half-inhibitory concentration (IC50) on Leucine aminopeptidase was 14.5 µM (active).
